One series deals with nicotinic receptors Rα7 (Rattus norvegicus, UniProt Q05941). Kind of series: biochemical. Type of series: binding.
Setting [1] is: rat frontal cortex membranes, [125I]α-bungarotoxin 2 nM, 22° C., 3 hours, Ki calculated from IC50 (Cheng and Prussof), read-out: Activity on Rα7.

Read-outs that look alike come from different tables or passages of the source.

Sequence of nicotinic receptors Rα7 (Q05941 23-502): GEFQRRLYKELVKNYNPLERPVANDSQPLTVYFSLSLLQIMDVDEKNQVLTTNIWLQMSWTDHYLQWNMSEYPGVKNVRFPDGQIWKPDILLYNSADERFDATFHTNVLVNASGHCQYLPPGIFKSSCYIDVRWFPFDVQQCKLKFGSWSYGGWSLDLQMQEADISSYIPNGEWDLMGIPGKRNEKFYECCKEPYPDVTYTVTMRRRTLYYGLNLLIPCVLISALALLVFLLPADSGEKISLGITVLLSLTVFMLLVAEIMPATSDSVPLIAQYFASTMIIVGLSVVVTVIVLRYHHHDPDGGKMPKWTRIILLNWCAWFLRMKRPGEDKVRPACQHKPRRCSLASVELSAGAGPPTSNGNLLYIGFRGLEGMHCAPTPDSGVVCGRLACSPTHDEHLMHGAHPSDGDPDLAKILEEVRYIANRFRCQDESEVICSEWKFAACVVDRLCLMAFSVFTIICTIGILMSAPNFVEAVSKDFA

The melting point is the temperature, or range, at which the solid turns liquid. Regarding `OCc1cccc(-c2ccc(-c3cn([C@H]4CN5CCC4CC5)nn3)cc2)c1` [Compound 95, (R)-[3-[4-[1-[quinuclidin-3-yl]-1H-1,2,3-triazol-4-yl]phenyl]phenyl]methanol], the melting point stood at 207 °C. Besides, the Ki on nicotinic receptors Rα7 (setting [1]) was 0.1 µM.
`Brc1ccc(-c2cn([C@H]3CN4CCC3CC4)nn2)cc1` [Compound 41, (R)-3-(4-(4-Bromophenyl)-1H-1,2,3-triazol-1-yl)quinuclidine] displayed a melting point of 158 °C. The molecule also showed a Ki on nicotinic receptors Rα7 of 0.006 ± 0.003 µM.
The like results for `OCc1ccc(-c2cccc(-c3cn([C@H]4CN5CCC4CC5)nn3)c2)cc1` [Compound 98, (R)-[4-[3-[1-[quinuclidin-3-yl]-1H-1,2,3-triazol-4-yl]phenyl]phenyl]methanol] were, in that order, 214 °C and 0.105 µM.
`c1cc(-c2ccc(-c3cn([C@H]4CN5CCC4CC5)nn3)s2)ccc1CN1CCCCC1` [Compound 103, (R)-3-[4-[5-[4-(1-piperidylmethyl)phenyl]-2-thienyl]-1H-1,2,3-triazol-1-yl]quinuclidine] gave a melting point of 230 °C. In addition, the Ki on nicotinic receptors Rα7 (setting [1]) is 0.0003 µM.
The like results for `c1cc(-c2ccc(-c3cn([C@H]4CN5CCC4CC5)nn3)s2)ccc1CN1CCOCC1` [Compound 102] were, in that order, 222 °C and 0.0009 µM.
For `Clc1ccc(-c2cn([C@H]3CN4CCC3CC4)nn2)cc1Cl` [Compound 40, (R)-3-(4-(3,4-Dichlorophenyl)-1H-1,2,3-triazol-1-yl)quinuclidine], the melting point is 108 °C. Moreover, the Ki on nicotinic receptors Rα7 (setting [1]) was 0.019 ± 0.006 µM.
`c1csc(-c2ccc(-c3cn([C@H]4CN5CCC4CC5)nn3)s2)c1` [Compound 61, (R)-3-(4-(2,7-Bithiophen-5-yl)-1H-1,2,3-triazol-1-yl)quinuclidine] gave a melting point of 182 °C. Also, the Ki on nicotinic receptors Rα7 (setting [1]) is 0.02 ± 0.002 µM.
Molecule `c1csc(-c2cn([C@H]3CN4CCC3CC4)nn2)c1` [Compound 53, (R)-3-(4-(Thiophen-2-yl)-1H-1,2,3-triazol-1-yl)quinuclidine] returned a melting point of 137 °C. Also, the Ki on nicotinic receptors Rα7 (setting [1]) is 0.0095 ± 0.003 µM.
Taken in the same sequence, the figures for `Fc1cccc(-c2cn([C@H]3CN4CCC3CC4)nn2)c1` [Compound 43, (R)-3-(4-(3-Fluorophenyl)-1H-1,2,3-triazol-1-yl)quinuclidine] were 120 °C and 0.01 ± 0.001 µM.
Turning to `OCc1cccc(-c2cccc(-c3cn([C@H]4CN5CCC4CC5)nn3)c2)c1` [Compound 99, (R)-[3-[3-[1-[quinuclidin-3-yl]-1H-1,2,3-triazol-4-yl]phenyl]phenyl]methanol], the melting point was 201 °C. For the same molecule, the Ki on nicotinic receptors Rα7 (setting [1]) was 0.0014 µM.
The like results for `Fc1ccc(-c2cccc(-c3cn([C@H]4CN5CCC4CC5)nn3)c2)cn1` [Compound 100, (R)-3-[4-[3-(6-fluoro-3-pyridyl)phenyl]-1H-1,2,3-triazol-1-yl]quinuclidine] were, in that order, 164 °C and 0.016 µM.
Consider `OCc1ccc(-c2ccc(-c3cn([C@H]4CN5CCC4CC5)nn3)s2)cc1` [Compound 63, (R)-(4-(5-(1-(quinuclidin-3-yl)-1H-1,2,3-triazol-4-yl)thiophen-2-yl)phenyl)methanol], for which the melting point stood at 253 °C. The Ki on nicotinic receptors Rα7 (setting [1]) is 0.0006 ± 0.0002 µM.
`Brc1cccc(-c2cn([C@H]3CN4CCC3CC4)nn2)c1` [Compound 83, (R)-3-[4-(3-bromophenyl)-1H-1,2,3-triazol-1-yl]quinuclidine]: the melting point is 188 °C. On nicotinic receptors Rα7, this molecule returned a Ki of 0.011 µM.
Taken in the same sequence, the figures for `OCc1cccc(-c2coc(-c3cn([C@H]4CN5CCC4CC5)nn3)c2)c1` [Compound 92, (R)-[3-[5-[1-[quinuclidin-3-yl]-1H-1,2,3-triazol-4-yl]-3-furyl]phenyl]methanol] were 212 °C and 0.115 µM.
`c1cc2cc(-c3cn([C@H]4CN5CCC4CC5)nn3)ccc2o1` [Compound 56, (R)-3-(4-(Benzofuran-5-yl)-1H-1,2,3-triazol-1-yl)quinuclidine] gave a melting point of 178 °C. In addition, the Ki on nicotinic receptors Rα7 (setting [1]) was 0.003 ± 0.001 µM.
The like results for `CN1CCN(Cc2ccc(-c3ccc(-c4cn([C@H]5CN6CCC5CC6)nn4)s3)cc2)CC1` [Compound 104, (R)-3-[4-[5-[4-[(4-methylpiperazin-1-yl)methyl]phenyl]-2-thienyl]-1H-1,2,3-triazol-1-yl]quinuclidine] were, in that order, 214 °C and 0.0003 µM.
Regarding `COC(=O)c1ccc(-c2ccc(-c3cn([C@H]4CN5CCC4CC5)nn3)s2)cc1F` [Compound 105, Methyl-2-fluoro-4-[5-[1-[(3R)-quinuclidin-3-yl]-1H-1,2,3-triazol-4-yl]-2-thienyl]benzoate], the melting point stood at 250 °C. On nicotinic receptors Rα7, this molecule came in with a Ki of 0.085 µM.
In turn, `Brc1ccc(-c2cn([C@H]3CN4CCC3CC4)nn2)s1` [Compound 54, (R)-3-(4-(5-Bromothiophen-2-yl)-1H-1,2,3-triazol-1-yl) quinuclidine] registered a melting point of 146 °C. The Ki at nicotinic receptors Rα7 was determined as 0.013 ± 0.004 µM.
`Fc1ccc(-c2coc(-c3cn([C@H]4CN5CCC4CC5)nn3)c2)cn1` [Compound 91, (R)-3-[4-[4-(6-fluoro-3-pyridyl)-2-furyl]-1H-1,2,3-triazol-1-yl]quinuclidine] came in with a melting point of 210 °C. In addition, the Ki on nicotinic receptors Rα7 worked out at 0.117 µM.
As for `COc1ccc2cc(-c3cn([C@H]4CN5CCC4CC5)nn3)ccc2c1` [Compound 49, (R)-3-(4-(6-Methoxynaphthalen-2-yl)-1H-1,2,3-triazol-1-yl)quinuclidine], the melting point was found to be 186 °C. The Ki on nicotinic receptors Rα7 (setting [1]) is 0.196 ± 0.021 µM.
In the case of `Nc1c(-c2ccccc2)nnn1[C@H]1CN2CCC1CC2` [Compound 60, (R)-4-Phenyl-1-(quinuclidin-3-yl)-1H-1,2,3-triazol-5-amine], the melting point was 120 °C. The molecule also returned a Ki on nicotinic receptors Rα7 of 0.011 ± 0.004 µM.
With `COc1ccc(-c2cn([C@H]3CN4CCC3CC4)nn2)cn1` [Compound 52, (R)-3-(4-(6-Methoxypyridin-3-yl)-1H-1,2,3-triazol-1-yl)quinuclidine], the melting point was determined as 155 °C. Besides, the Ki at nicotinic receptors Rα7 (setting [1]) is 0.105 ± 0.029 µM.
Taken in the same sequence, the figures for `FCc1ccc(-c2ccc(-c3cn([C@H]4CN5CCC4CC5)nn3)s2)cc1` [Compound 112, (R)-3-[4-[5-[4-(fluoromethyl)phenyl]-2-thienyl]-1H-1,2,3-triazol-1-yl]quinuclidine] were 199 °C and 0.005 µM.
The like results for `Fc1ccccc1-c1cn([C@H]2CN3CCC2CC3)nn1` [Compound 44, (R)-3-(4-(2-Fluorophenyl)-1H-1,2,3-triazol-1-yl)quinuclidine] were, in that order, 94 °C and 0.013 ± 0.003 µM.
The like results for `OCc1cccc(-c2csc(-c3cn([C@H]4CN5CCC4CC5)nn3)c2)c1` [Compound 89, (R)-[3-[5-[1-[quinuclidin-3-yl]-1H-1,2,3-triazol-4-yl]-3-thienyl]phenyl]methanol] were, in that order, 211 °C and 0.013 µM.
Consider `OCc1ccc(-c2ccc(-c3cn([C@H]4CN5CCC4CC5)nn3)cc2)cc1` [Compound 93, (R)-[4-[4-[1-[quinuclidin-3-yl]-1H-1,2,3-triazol-4-yl]phenyl]phenyl]methanol], for which the melting point was determined as 250 °C. Also, on nicotinic receptors Rα7, the Ki was 0.137 µM.

These data come from US10059704B2, “1,4-disubstituted 1,2,3-triazoles, methods for preparing same, and diagnostic and therapeutic uses thereof” (CENTRE NATIONAL DE LA RECHERCHE SCIENTIFIQUE (C.N.R.S.), priority 2011, dated 2018).
